# Reference: patent US20170334899A1, “AMINO-SUBSTITUTED ISOTHIAZOLES” (Bayer Pharma Aktiengesellschaft, priority 2014, published 2017)
# How the values were obtained:
# Assay type in all cases: cell-based
# HeLa-MaTu-ADR = test: Proliferation assay (crystal violet), HeLa-MaTu-ADR; conditions: 96 h; HeLa-MaTu-ADR cells; 4 days incubation; crystal violet staining; read-out: IC50 inhibition of proliferation, HeLa-MaTu-ADR
# Description: (§1) Cultivated tumor cells (cells were ordered from ATCC, except HeLa-MaTu and HeLa-MaTu-ADR, which were ordered from EPO-GmbH, Berlin) were plated at a density of 1000 to 5000 cells/well, depending on the growth rate of the respective cell line, in a 96-well multititer plate in 200 μL of their respective growth medium supplemented 10% fetal calf serum. After 24 hours, the cells of one plate (zero-point plate) were stained with crystal violet (see below), while the medium of the other plates was replaced by fresh culture medium (200 μl), to which the test substances were added in various concentrations (0 μM, as well as in the range of 0.001-10 μM; the final concentration of the solvent dimethyl sulfoxide was 0.5%). The cells were incubated for 4 days in the presence of test substances. Cell proliferation was determined by staining the cells with crystal violet: the cells were fixed by adding 20 μl/measuring point of an 11% glutaric aldehyde solution for 15 minutes at room temperature. After three washing cycles of the fixed cells with water, the plates were dried at room temperature. The cells were stained by adding 100 μl/measuring point of a 0.1% crystal violet solution (pH 3.0). After three washing cycles of the stained cells with water, the plates were dried at room temperature. The dye was dissolved by adding 100 μl/measuring point of a 10% acetic acid solution. Absorbtion was determined by photometry at a wavelength of 595 nm. The change of cell number, in percent, was calculated by normalization of the measured values to the aborbtion values of the zero-point plate (=0%) and the absorbtion of the untreated (0 μm) cells (=100%). The IC50 values were determined by means of a 4 parameter fit.
# HeLa = test: Proliferation assay (crystal violet), HeLa; conditions: Homo sapiens, HeLa, 96 h, HeLa cells; 4 days incubation; crystal violet staining; read-out: IC50 inhibition of proliferation, HeLa
# Method in brief: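 Seed 1000–5000 cells/well, 10% FCS; 24 h later replace medium and add compound (0.001–10 μM, 0.5% DMSO); incubate 4 d; glutaraldehyde fix, 0.1% crystal violet pH 3.0, elute with 10% acetic acid; A595; 4-parameter IC50.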
# Caco-2 = test: Proliferation assay (crystal violet), Caco-2; conditions: Homo sapiens, 96 h; Caco-2 cells; 4 days incubation; crystal violet staining; read-out: IC50 inhibition of proliferation, Caco2
# Description: as §1
# DU145 = test: Proliferation assay (crystal violet), DU145; conditions: Homo sapiens, DU-145, 96 h; DU145 cells; 4 days incubation; crystal violet staining; read-out: IC50 inhibition of proliferation, DU145
# Description: as §1
# B16F10 = test: Proliferation assay (crystal violet), B16F10; conditions: Mus musculus, B16-F10, 96 h; B16F10 cells; 4 days incubation; crystal violet staining; read-out: IC50 inhibition of proliferation, B16F10
# Description: as §1
# NCI-H460 = test: Proliferation assay (crystal violet), NCI-H460; conditions: Homo sapiens, 96 h; NCI-H460 cells; 4 days incubation; crystal violet staining; read-out: IC50 inhibition of proliferation, NCI-H460
# Description: as §1
Structure (SMILES),IC50 (HeLa-MaTu-ADR),IC50 (HeLa),IC50 (Caco-2),IC50 (DU145),IC50 (B16F10),IC50 (NCI-H460)
"Cc1nsc(Nc2cnc3ccccc3n2)c1C(=O)Nc1ccc(OC2CCN(CC(F)(F)F)CC2)nc1 [Example 21, 3-Methyl-5-(quinoxalin-2-ylamino)-N-(6-{[1-(2,2,2-trifluoroethyl)piperidin-4-yl]oxy}-pyridin-3-yl)-1,2-thiazole-4-carboxamide]",880 nM,870 nM,1400 nM,1900 nM,1400 nM,750 nM
"Cc1nsc(Nc2ccc(C#N)cn2)c1C(=O)Nc1ccc(OC2CCN(C(=O)OC(C)(C)C)CC2)nc1 [Example 27, tert-Butyl 4-({5-[({5-[(5-cyanopyridin-2-yl)amino]-3-methyl-1,2-thiazol-4-yl}-carbonyl)amino]pyridin-2-yl}oxy)piperidine-1-carboxylate]",250 nM,630 nM,410 nM,680 nM,610 nM,280 nM
